Reference: US5049686A, “Novel large-ring diamine platinum(II) and platinum(IV) chelates” (Warner-Lambert Company, priority 1989, dated 1991)

Tests used:
Assay type in all cases: cell-based, murine
L1210S = assay: In vitro cytotoxicity, growth inhibition of normal L1210 cell line over 72 hours; conditions: for factor of crossresistance (resistance ratio): ID50 divided by ID50 against normal cell line, in parentheses, 4320 min; for ID50: normal L1210 cell line, 72 hours
Protocol: (§1) ID50 values are the concentration of complex required to inhibit the in vitro growth of treated cells to a level of 50% of that for untreated cells over a 72-hour period. The cell lines are suspended in appropriate media at a concentration which results in the cells remaining in log phase growth throughout the treatment period. Serially diluted drug is added to duplicate wells containing the cell growth. After 72 hours of incubation of the cell lines in 5% CO2, the cells are counted and the ID50 values determined.
(§2) Resistance ratio values shown in Table 1 were calculated by dividing the ID50 values against the resistant cell lines by the ID50 values against the normal cell lines. The resistance ratio values shown in the table indicate a measure of the degree of resistance of the cell line to a particular drug.

L1210PtR4 = assay: In vitro cytotoxicity, growth inhibition of resistant L1210 cell line L1210PtR4 over 72 hours; conditions: for ID50: 72 hours; for factor of crossresistance (resistance ratio): ID50 resistant / ID50 normal cell line, in parentheses, 4320 min
Protocol: as §1, §2

L1210DDP5 = assay: In vitro cytotoxicity, growth inhibition of resistant L1210 cell line L1210DDP5 over 72 hours; conditions: for ID50: 72 hours; for factor of crossresistance (resistance ratio): ID50 resistant / ID50 normal cell line, in parentheses, 4320 min
Protocol: as §1, §2

L1210DACH = assay: In vitro cytotoxicity, growth inhibition of Pt(DACH)Cl2-resistant L1210 cell line over 72 hours; conditions: for ID50 / factor of crossresistance (resistance ratio): L1210DACH; for ID50: 72 hours; for factor of crossresistance (resistance ratio): ID50 resistant / ID50 normal cell line, in parentheses; for factor of crossresistance (resistance ratio) / cross resistance to Pt(DACH)Cl2-resistant L1210 cells in culture: 4320 min
Protocol: as §1, §2

L1210 cell lines = assay: In vitro antitumor activity against L1210 cell lines compared with cisplatin; conditions: in words
Protocol: as §1, §2

[1] = test system: cisplatin-resistant cells; assay: In vitro activity against cisplatin-resistant L1210 cells compared with cisplatin; conditions: in words; for effectiveness against cisplatin-resistant cells: compared with cisplatin
Protocol: as §1, §2

## (SP-4-2)-Dichloro(1,6-hexanediamine-N,N')-platinum [Example 2]
L1210S
  factor of crossresistance (resistance ratio): 1
  ID50: 0.93 µg/mL
L1210PtR4
  ID50: 2.8 µg/mL
  factor of crossresistance (resistance ratio): 3
L1210DDP5
  ID50: 3.7 µg/mL
  factor of crossresistance (resistance ratio): 4
L1210DACH
  ID50: 2.13 µg/mL
  factor of crossresistance (resistance ratio): 2.3
  cross resistance to Pt(DACH)Cl2-resistant L1210 cells in culture: 2.3 fold
L1210 cell lines
  antitumor activity compared to cisplatin (potency and response): superior to cisplatin both in potency and response
[1]
  effectiveness against cisplatin-resistant cells: more effective than cisplatin against cisplatin-resistant cells
  cross resistance to cisplatin: some degree of cross resistance to cisplatin

## NC1CCCCC1N.[Cl][Pt][Cl] (stereo not drawn) [[Pt(trans-l-DACH)Cl2], [SP-4-2-(1R-trans)]-dichloro(1,2-cyclohexanediamine-N,N')platinum, reference compound]
L1210S
  factor of crossresistance (resistance ratio): 1
  ID50: 0.088 µg/mL
L1210PtR4
  ID50: 0.159 µg/mL
  factor of crossresistance (resistance ratio): 1.8
L1210DDP5
  ID50: 0.176 µg/mL
  factor of crossresistance (resistance ratio): 2
L1210DACH
  ID50: 2.67 µg/mL
  factor of crossresistance (resistance ratio): 30
  cross resistance to Pt(DACH)Cl2-resistant L1210 cells in culture: 30 fold

## N.N.[Cl][Pt][Cl] [Cisplatin, cis-diaminedichloroplatinum(II), reference compound]
L1210S
  ID50: 0.34 µg/mL
L1210PtR4
  ID50: 3.61 µg/mL
L1210DDP5
  ID50: 5.63 µg/mL
L1210DACH
  ID50: 0.467 µg/mL

## (SP-4-2)-Dichloro(1,5-pentanediamine-N,N')-platinum [Example 1]
L1210S
  factor of crossresistance (resistance ratio): 1
  ID50: 0.43 µg/mL
L1210PtR4
  ID50: 1.13 µg/mL
  factor of crossresistance (resistance ratio): 2.6
L1210DDP5
  ID50: 1.58 µg/mL
  factor of crossresistance (resistance ratio): 3.7
L1210DACH
  ID50: 1.17 µg/mL
  factor of crossresistance (resistance ratio): 2.7
  cross resistance to Pt(DACH)Cl2-resistant L1210 cells in culture: 2.7 fold
L1210 cell lines
  antitumor activity compared to cisplatin (potency and response): superior to cisplatin both in potency and response
[1]
  effectiveness against cisplatin-resistant cells: more effective than cisplatin against cisplatin-resistant cells
  cross resistance to cisplatin: some degree of cross resistance to cisplatin
